According to patent publication US20100204340A1 (priority 2009, published 2010):

How the values were obtained:
[1] = system: adipocyte differentiation; settings: prior art, Biochem Biophys Res Commun 372 (2008) 108-113; cited from earlier work
[2] = Pharmacokinetics in serum and urine upon oral administration; type: in vivo, rats; settings: rats, oral, 100 mg/kg body weight
Experimental: The compound in its free and conjugated form is freely absorbed into systemic circulation with the glucoronide detected up to 72 hours.
(FIG. 4). The compound in its free and conjugated form appears in systemic circulation within 15 minutes of administration.

[3] = biological target: T1, SIRT1 polypeptide (Homo sapiens, UniProt Q96EB6); test: SIRT 1 Direct fluorescent Screening Assay kit (Cayman); type: biochemical; settings: read-out: Percentage SIRT 1 modulation; for activation at 1 µg/mL: 1 μg/ml; for activation at 10 µg/mL: 10 μg/ml; for activation at 50 µg/mL: 50 μg/ml; for activation at 100 µg/mL: 100 μg/ml; for activation at 250 µg/mL: 250 μg/ml
T1 construct: purchased Cayman Chemical Company 10010401
T1 sequence (Q96EB6 1-747): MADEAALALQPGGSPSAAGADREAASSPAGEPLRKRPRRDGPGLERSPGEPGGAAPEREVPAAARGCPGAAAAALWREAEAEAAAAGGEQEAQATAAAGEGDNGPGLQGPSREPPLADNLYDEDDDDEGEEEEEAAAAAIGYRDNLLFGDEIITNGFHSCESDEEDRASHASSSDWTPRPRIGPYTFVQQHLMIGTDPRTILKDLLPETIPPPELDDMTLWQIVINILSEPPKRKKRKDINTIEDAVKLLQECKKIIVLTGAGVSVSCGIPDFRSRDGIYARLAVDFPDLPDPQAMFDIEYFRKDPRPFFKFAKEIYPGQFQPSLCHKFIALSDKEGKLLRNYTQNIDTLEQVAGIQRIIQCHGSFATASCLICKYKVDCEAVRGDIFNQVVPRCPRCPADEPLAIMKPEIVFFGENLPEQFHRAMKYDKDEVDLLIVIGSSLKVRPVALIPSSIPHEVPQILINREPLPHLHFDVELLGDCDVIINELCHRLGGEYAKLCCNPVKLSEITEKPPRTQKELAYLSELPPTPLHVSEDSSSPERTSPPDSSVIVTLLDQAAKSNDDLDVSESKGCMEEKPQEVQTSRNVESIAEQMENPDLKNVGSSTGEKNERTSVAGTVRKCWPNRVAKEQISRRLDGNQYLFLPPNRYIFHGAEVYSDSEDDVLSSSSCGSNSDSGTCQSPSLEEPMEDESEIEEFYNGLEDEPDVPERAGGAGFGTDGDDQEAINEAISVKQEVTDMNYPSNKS
Experimental: SIRT-1 activation/inhibition was measured using the SIRT 1 Direct fluorescent Screening Assay kit (Catalog No. 10010401) and instructions provided therein of Cayman Chemical Company, 1180 East Ellsworth Road, Ann Arbor, Mich. 48108 USA. (http://www.caymanchem.com/pdfs/10010401.pdf)

[4] = system: 3T3-L1 cells; settings: cited from earlier work

COc1c(O)cc(C=Cc2ccccc2)cc1O [3,5-dihydroxy-4-methoxystilbene]
Effect on adipocyte differentiation / adipogenesis [1]: no effect on adipogenesis

CC(=O)O.Cc1c(O)cc(C=Cc2ccccc2)cc1O [3,5-dihydroxy-4-methylstilbene acetate]
Effect on adipocyte differentiation / adipogenesis [1]: no effect on adipogenesis

COc1ccc(C=Cc2cc(O)cc(O)c2)cc1 [3,5-dihydroxy-40-methoxystilbene]
Effect on adipocyte differentiation / adipogenesis [1]: no effect on adipogenesis

Oc1cc(O)cc(/C=C/c2c(O)cccc2O)c1 [Gnetol, 2,3′,5′,6-tetrahydroxy-trans-stilbene]
Oral bioavailability (free form and glucoronide) ([2]; serum): orally bioavailable
Urinary excretion form ([2]; urine): excreted predominantly as glucoronides in the urine

Oc1cc(O)cc(/C=C/c2ccc(O)cc2O)c1 [Oxyresveratrol, trans-2,3′,4,5′-tetrahydroxystilbene]
activation at 1 µg/mL [3]: 77.8%
activation at 10 µg/mL [3]: 24.4%
activation at 50 µg/mL [3]: 60%
activation at 100 µg/mL [3]: 202%
activation at 250 µg/mL [3]: 298%

COc1cc(C=Cc2ccc(O)cc2)cc(OC)c1 [Pterostilbene, 3,5-dimethoxy-4′-hydroxystilbene]
activation at 1 µg/mL [3]: 2.22%
activation at 10 µg/mL [3]: 11.1%
activation at 50 µg/mL [3]: 53.3%
activation at 100 µg/mL [3]: 113%
activation at 250 µg/mL [3]: 231%
IC50 ([4]; approximate conversion of 23.9 μg/ml, read-out: Reported IC50 (adipogenesis), converted): ~96 µM
Reported IC50 (adipogenesis) ([4]; reported, Remsberg et al., 3T3-L1): 23.9 µg/mL

CC(NC(=O)c1ccccc1/N=C/c1c(O)ccc2ccccc12)c1ccccc1 (stereo not shown) [Sirtinol, 2-[(2-Hydroxynaphthalen-1-ylmethylene)amino]-N-(1-phenyl-ethyl)•benzamide]
activation at 1 µg/mL [3]: 64.4%

Oc1ccc([C@H]2c3c(O)cc(O)cc3[C@H]3c4c(cc(O)cc4[C@@H]2c2cc(/C=C/c4cc(O)cc5c4[C@H](c4cc(O)cc(O)c4)[C@@H](c4ccc(O)cc4)O5)ccc2O)O[C@@H]3c2ccc(O)cc2)cc1 [Vitisin A]
Effect on adipocyte differentiation / adipogenesis [1]: inhibited adipocyte differentiation most effectively

Oc1ccc(/C=C/c2cc(O)cc3c2[C@@H](c2cc(O)cc(O)c2)[C@H](c2ccc(O)cc2)O3)cc1 [e-viniferin]
Effect on adipocyte differentiation / adipogenesis [1]: no effect on adipogenesis

CC(=O)Oc1ccc(C=Cc2cc(OC(C)=O)cc(OC(C)=O)c2)cc1 [resveratrol triacetate]
Effect on adipocyte differentiation / adipogenesis [1]: no effect on adipogenesis

OC[C@H]1O[C@@H](Oc2cc(O)cc(/C=C/c3ccc(O)cc3)c2)[C@H](O)[C@@H](O)[C@@H]1O [resveratrol-3-O-B-D-glucoside]
Effect on adipocyte differentiation / adipogenesis [1]: no effect on adipogenesis

CC(=O)OCC1OC(Oc2cc(C=Cc3ccc(OC(C)=O)cc3)cc(OC(C)=O)c2)C(OC(C)=O)C(OC(C)=O)C1OC(C)=O (stereo not shown) [resveratrol-3-O-Glu hexaacetate]
Effect on adipocyte differentiation / adipogenesis [1]: no effect on adipogenesis

COc1ccc(C=Cc2cc(OC(C)=O)cc(OC3OC(COC(C)=O)C(OC(C)=O)C(OC(C)=O)C3OC(C)=O)c2)cc1OC(C)=O (stereo not shown) [rhaponticin hexaacetate]
Effect on adipocyte differentiation / adipogenesis [1]: no effect on adipogenesis

COc1ccc(/C=C/c2cc(O)cc(O[C@@H]3O[C@H](CO)[C@@H](O)[C@H](O)[C@H]3O)c2)cc1O [rhaponticin]
Effect on adipocyte differentiation / adipogenesis [1]: no effect on adipogenesis
